In patent publication US20250009819A1, “NOVEL PROBIOTICS AND USE THEREOF” (PBLBIOLAB CO., LTD., priority 2021, published 2025):

Key:
[1] = tested on: animals with LPS-induced cognitive impairment; assay: Animals with LPS-induced cognitive impairment: colitis improvement (colon); type: in vivo, C57BL/6 male mice; details: LPS-treated mice, 1×10^9 CFU/mouse or sulfasalazine 50 mg/kg once a day for 5 days
Protocol: To 100 mg of colon tissue, 200 μl of 10 mM potassium phosphate buffer (pH 7.0) containing 0.5% hexadecyl trimethyl ammonium bromide was added and homogenized. Then, the supernatant was obtained by centrifugation for 10 minutes at 4° C. and 10,000 g. A volume of 50 μl of the supernatant was added to 0.95 mk of reaction solution (containing 1.6 mM tetramethyl benzidine and 0.1 mM H2O2), reacted at 37° C., and absorbance was monitored over time at 650 nm.
(§1) Hippocampus, colon, and spleen tissues were homogenized by adding 1 ml of RIPA buffer (Gibco) containing protease inhibitor cocktail and centrifuged at 4° C., 13000 rpm for 15 min to obtain supernatant. Indicators of this supernatant were measured using an ELISA kit (Ebioscience).
(§2) C57BL/6 male mice (5 weeks old, 19-21 g) were divided (6 mice in each group) and acclimatized to the laboratory for 1 week. To induce intestinal and brain diseases, mice were intraperitoneally administered Escherichia coli-derived LPS (10 μg/kg) once daily for 5 days. […] Experimental animals in the normal group were orally administered with a physiological saline solution, which was used to suspend lactic acid bacteria. The day following the conclusion of sample administration, the experimental animals were sacrificed, and samples from the brain hippocampus, colon, and spleen were collected. In the Hippocampus, inflammatory indicators, such as IFN-γ, TNF-α, and IL-10, were measured using ELISA. In the colon, intestinal length and inflammatory indicators, such as IFN-γ, TNF-α, and IL-10, were measured. In the spleen, Th1 cells and Treg cells were measured by FACS (Fluorescence-Activated Cell Sorting).

[2] = tested on: animals with LPS-induced cognitive impairment; assay: Animals with LPS-induced cognitive impairment: improvement effect in spleen; type: in vivo, C57BL/6 male mice; details: LPS-treated mice, 1×10^9 CFU/mouse or sulfasalazine 50 mg/kg once a day for 5 days
Protocol: as §1
mRNA was isolated from spleen tissue using the RNA Isolation Kit: RNeasy Mini Kit (QIAGEN), converted to cDNA, and qPCR was performed to measure the expression rates of Tbet, Foxp3, and glyceraldehyde 3-phosphate dehydrogenase (GAPDH). The reaction product was first treated at 95° C. for 30 seconds, followed by 38 cycles of 5 seconds at 95° C. and 30 seconds at 72° C. for analysis.
as §2

[3] = tested on: animals with LPS-induced cognitive impairment; assay: Animals with LPS-induced cognitive impairment: cognitive improvement, hippocampus indicators; type: in vivo, C57BL/6 male mice; details: LPS-treated mice, 1×10^9 CFU/mouse or sulfasalazine 50 mg/kg once a day for 5 days
Protocol: as §1
The Y-shaped maze measurement device is shaped like an alphabetical Y with three arms extending from it, each arm being 25 cm long, 14 cm high, 5 cm wide, and positioned at the same angle. At the end of one arm of the Y-shaped maze, the animal was placed with its head facing out and allowed to freely navigate the arm for 8 minutes. The animal's movements were recorded, and reported as arm entries when the animal entered the arm with its hind paw, and the animal's movement was represented by an alternation, which was defined as one alternation when the animal passed through the three arms in succession. The amount of spontaneous alternation behavior was expressed as a percentage between the actual number of alternations and the maximum possible number of alternations (i.e., the total number of […] minus 2).
The experiment was conducted in a box (40×40×40 cm) made so that the outside could not be seen from the inside. Two objects (A, A′) of the same shape and size were fixedly disposed in a box and the mouse was relocated to start from the center of the box. Then, the number of times the mouse made contact with the two objects was recorded for 10 minutes. After 24 hours, one of the two objects was replaced with a new object (A, B). Then, one original object and one new object were prepared, and the animal's exploration time was measured.
as §2

Neuropeptide Y (NPY) = Neuropeptide Y (NPY) expression in PC12 phaeochromocytoma cells; type: cell-based; details: LPS 200 ng/ml; lactic acid bacteria 1×10^4 CFU/ml; 24 hr
Protocol: (§3) PC12 cells obtained from the Korean Cell Line Bank were cultured in DMEM medium supplemented with 10% FBS and 1% antibiotics, and dispensed at 1×10^6 cells per well in a 12-well plate. Then, LPS (200 ng/ml) was added to each well along with lactic acid bacteria (1×10^4 CFU/ml) and incubated for 24 hr. The cells and supernatants were collected, sonicated and centrifuged, and the amount of NPY in the supernatant was measured by ELISA kit.

IL-10 = IL-10 expression in LPS-treated macrophages (ELISA); type: cell-based, C57BL/6 mice; details: macrophages treated with lactic acid bacteria and LPS for 24 hours
In short: (§4)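 Peritoneal macrophages were elicited in male C57BL/6 mice (6 weeks) by i.p. 4% thioglycolate and harvested 96 h later. Cells at 0.5×10^6/well were treated with lactic acid bacteria plus LPS for 24 h. Cytokines in the supernatant were quantified by ELISA.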

Clostridium difficile = Clostridium difficile proliferation in gut microbiota (PCR); type: cell-based; details: human feces culture; lactic acid bacteria 1×10^6 CFU/mL; anaerobic 24 hr
In short: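 Human fecal supernatant, diluted 10,000-fold in GAM, co-cultured anaerobically 24 h with lactic acid bacteria (1×10^6 CFU/mL). C. difficile quantified by PCR on pellet DNA (95 °C 30 s; 42 cycles 95 °C 5 s/72 °C 30 s); supernatant LPS measured by ELISA.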

TNF-α = TNF-α expression in LPS-treated macrophages (ELISA); type: cell-based, C57BL/6 mice; details: macrophages treated with lactic acid bacteria and LPS for 24 hours
In short: as §4

gut microbiota = assay: LPS production in gut microbiota (ELISA); type: cell-based; details: human feces culture; lactic acid bacteria 1×10^6 CFU/mL; anaerobic 24 hr
Protocol: Fresh human feces were suspended in anaerobic medium (GAM, Nissui Pharmaceutical Co., Ltd., Japan) and allowed to stand for 10 min. The supernatant was diluted with 10,000-fold anaerobic medium, 0.05 mL of the dilution was transplanted into 5 mL of freshly made anaerobic medium, and lactic acid bacteria (1×10^6 CFU/mL) were implanted and incubated anaerobically for 24 hr.

BDNF = BDNF expression in SH-SY5Y cells; type: cell-based; details: LPS 200 ng/ml; lactic acid bacteria 1×10^4 CFU/ml; 24 h
Protocol: as §3, with “SH-SY5Y” for “PC12”, “2×10^6” for “1×10^6”, “h.” for “hr.”, “BDNF” for “NPY”

[4] = Antioxidant activity (DPPH, in vitro); type: biochemical; details: DPPH 0.2 mM; lactic acid bacteria suspension 1×10^8 CFU/ml; 37° C. 20 min
In short: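 Lactic acid bacteria suspension (1×10^8 CFU/ml) or vitamin C (1 g/ml) was mixed with 0.2 mM ethanolic DPPH and incubated 20 min at 37° C. After centrifugation, supernatant absorbance at 517 nm gave the antioxidant activity.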

With `O=C(O)c1cc(/N=N/c2ccc(S(=O)(=O)Nc3ccccn3)cc2)ccc1O` [Sulfasalazine, sulfasalazine, reference compound] the “Colon (cm)” value [1] was 5.0 cm, the IFN-γ/IL-10 [1] was 2.85 and the IL-10 [1] was 15.91 pg/mg. The “Interferon (IFN)-γ” value [1] was 45.4 pg/mg, the MPO activity [1] was 4.75 μUnit/mg and the TNF-α [1] was 20.1 pg/mg. For the same compound, the TNF-α/IL-10 [1] was 1.26, the Tbet/Foxp3 ([2]; spleen qPCR) was 1.78 and the IL-10 ([2]; spleen) was 9.78 pg/mg. For the same compound, the “Interferon (IFN)-γ” value ([2]; spleen) was 13.55 pg/mg, the “NK cell cytoxicity (%)” value ([2]; spleen) was 7.92% and the “Phagocytosis (%)” value ([2]; spleen) was 39.59%. The TNF-α ([2]; spleen) was 4.51 pg/mg, the TNF-α/IL-10 ([2]; spleen) was 0.13 and the “Exoporation (%) (in NOR task)” value [3] was 72.02%. For the same compound, the “Spontaneous alteration (%) (in Y-maze task)” value [3] was 69.21%, the IFN-γ/IL-10 ([3]; hippocampus) was 0.60 and the IL-10 ([3]; hippocampus) was 45.79 pg/mg. The “Interferon (IFN)-γ” value ([3]; hippocampus) was 27.35 pg/mg, the TNF-α ([3]; hippocampus) was 10.98 pg/mg and the TNF-α/IL-10 ([3]; hippocampus) was 0.24.

In the case of Lactobacillus mucosae NK204, the “PC12 cell Induction of NPY expression” value (Neuropeptide Y (NPY)) is reported as “− (not or less than 20% (−; <20%))”, the “Macrophage Induction of IL-10 expression” value (IL-10) is reported as “− (not or less than 20% (−; <20%))” and the “Gut microbiota Inhibition of difficile bacteria proliferation” value (Clostridium difficile) is reported as “+ (weakly (+; >20-60%))”. For the same compound, the “Macrophage Inhibition of TNF-α expression” value (from here on “Macrophage Inhibition”) (TNF-α) was “− (not or less than 20% (−; <20%))”, the “Gut microbiota Inhibition of LPS production” value (gut microbiota) was “− (not or less than 20% (−; <20%))” and the “SHSY5Y cell Induction of BDNF expression” value (BDNF) was “− (not or less than 20% (−; <20%))”. The Antioxidant activity [4] was “+ (weakly (+; >20-60%))”.

For Bifidobacterium longum NK218, the “PC12 cell Induction of NPY expression” value (Neuropeptide Y (NPY)) was “+ (weakly (+; >20-60%))”, the “Macrophage Induction of IL-10 expression” value (IL-10) was “− (not or less than 20% (−; <20%))” and the “Gut microbiota Inhibition of difficile bacteria proliferation” value (Clostridium difficile) was “+ (weakly (+; >20-60%))”. For the same compound, the “Macrophage Inhibition” value (TNF-α) was “− (not or less than 20% (−; <20%))”, the “Gut microbiota Inhibition of LPS production” value (gut microbiota) was “+ (weakly (+; >20-60%))” and the “SHSY5Y cell Induction of BDNF expression” value (BDNF) was “+ (weakly (+; >20-60%))”. For the same compound, the Antioxidant activity [4] was “+ (weakly (+; >20-60%))”.

With Lactobacillus plantarum NK181 the “PC12 cell Induction of NPY expression” value (Neuropeptide Y (NPY)) was “+ (weakly (+; >20-60%))”, the “Macrophage Induction of IL-10 expression” value (IL-10) was “− (not or less than 20% (−; <20%))” and the “Gut microbiota Inhibition of difficile bacteria proliferation” value (Clostridium difficile) was “+ (weakly (+; >20-60%))”. For the same compound, the “Macrophage Inhibition” value (TNF-α) was “+ (weakly (+; >20-60%))”, the “Gut microbiota Inhibition of LPS production” value (gut microbiota) was “− (not or less than 20% (−; <20%))” and the “SHSY5Y cell Induction of BDNF expression” value (BDNF) was “− (not or less than 20% (−; <20%))”. The Antioxidant activity [4] was “+ (weakly (+; >20-60%))”.

With Lactobacillus casei NK195 the “PC12 cell Induction of NPY expression” value (Neuropeptide Y (NPY)) was “− (not or less than 20% (−; <20%))”, the “Macrophage Induction of IL-10 expression” value (IL-10) was “+ (weakly (+; >20-60%))” and the “Gut microbiota Inhibition of difficile bacteria proliferation” value (Clostridium difficile) was “+ (weakly (+; >20-60%))”. The “Macrophage Inhibition” value (TNF-α) was “+ (weakly (+; >20-60%))”, the “Gut microbiota Inhibition of LPS production” value (gut microbiota) was “− (not or less than 20% (−; <20%))” and the “SHSY5Y cell Induction of BDNF expression” value (BDNF) was “− (not or less than 20% (−; <20%))”. The Antioxidant activity [4] was “+ (weakly (+; >20-60%))”.

With Lactobacillus plantarum NK184 the “PC12 cell Induction of NPY expression” value (Neuropeptide Y (NPY)) was “− (not or less than 20% (−; <20%))”, the “Macrophage Induction of IL-10 expression” value (IL-10) was “+ (weakly (+; >20-60%))” and the “Gut microbiota Inhibition of difficile bacteria proliferation” value (Clostridium difficile) was “+ (weakly (+; >20-60%))”. For the same compound, the “Macrophage Inhibition” value (TNF-α) was “+ (weakly (+; >20-60%))”, the “Gut microbiota Inhibition of LPS production” value (gut microbiota) was “+ (weakly (+; >20-60%))” and the “SHSY5Y cell Induction of BDNF expression” value (BDNF) was “− (not or less than 20% (−; <20%))”. For the same compound, the Antioxidant activity [4] was “++ (strongly (++; >60-90%))”.

For Bifidobacterium catenulatum NK227, the “PC12 cell Induction of NPY expression” value (Neuropeptide Y (NPY)) was “+ (weakly (+; >20-60%))”, the “Macrophage Induction of IL-10 expression” value (IL-10) was “+ (weakly (+; >20-60%))” and the “Gut microbiota Inhibition of difficile bacteria proliferation” value (Clostridium difficile) was “+ (weakly (+; >20-60%))”. For the same compound, the “Macrophage Inhibition” value (TNF-α) was “+ (weakly (+; >20-60%))”, the “Gut microbiota Inhibition of LPS production” value (gut microbiota) was “+ (weakly (+; >20-60%))” and the “SHSY5Y cell Induction of BDNF expression” value (BDNF) was “− (not or less than 20% (−; <20%))”. For the same compound, the Antioxidant activity [4] was “+ (weakly (+; >20-60%))”.

For Lactobacillus plantarum NK182, the “PC12 cell Induction of NPY expression” value (Neuropeptide Y (NPY)) was “− (not or less than 20% (−; <20%))”, the “Macrophage Induction of IL-10 expression” value (IL-10) was “− (not or less than 20% (−; <20%))” and the “Gut microbiota Inhibition of difficile bacteria proliferation” value (Clostridium difficile) was “++ (strongly (++; >60-90%))”. For the same compound, the “Macrophage Inhibition” value (TNF-α) was “− (not or less than 20% (−; <20%))”, the “Gut microbiota Inhibition of LPS production” value (gut microbiota) was “− (not or less than 20% (−; <20%))” and the “SHSY5Y cell Induction of BDNF expression” value (BDNF) was “− (not or less than 20% (−; <20%))”. The Antioxidant activity [4] was “++ (strongly (++; >60-90%))”.

In the case of Bifidobacterium catenulatum NK226, the “PC12 cell Induction of NPY expression” value (Neuropeptide Y (NPY)) is reported as “− (not or less than 20% (−; <20%))”, the “Macrophage Induction of IL-10 expression” value (IL-10) is reported as “− (not or less than 20% (−; <20%))” and the “Gut microbiota Inhibition of difficile bacteria proliferation” value (Clostridium difficile) is reported as “+ (weakly (+; >20-60%))”. For the same compound, the “Macrophage Inhibition” value (TNF-α) was “− (not or less than 20% (−; <20%))”, the “Gut microbiota Inhibition of LPS production” value (gut microbiota) was “− (not or less than 20% (−; <20%))” and the “SHSY5Y cell Induction of BDNF expression” value (BDNF) was “+ (weakly (+; >20-60%))”. For the same compound, the Antioxidant activity [4] was “+ (weakly (+; >20-60%))”.
